This is an account of results in the NIST ThermoML archive (doi:10.1016/j.jct.2015.10.016).

The conditions of data set [1]: Crystal; DTA.
Data set [2] is described as follows: Molar enthalpy of transition or fusion. Particulars: Crystal; DSC.

Molecules are shown by their SMILES. ± gives the expanded uncertainty stated by the source.

As for `O=C(NC[C@H]1CN(c2ccc(N3CCOCC3=O)cc2)C(=O)O1)c1ccc(Cl)s1` [Rivaroxaban], the Normal melting temperature in data set [1] came to 235.40 ± 1.1 °C. Moreover, the “Molar enthalpy of transition or fusion” value in data set [2] was determined as 11.2 ± 0.502 kcal/mol.
